In patent US11168073B2, “3,3-difluoroallylamines or salts thereof and pharmaceutical compositions comprising the same” (YUHAN CORPORATION, priority 2018, dated 2021):
Where a name gives a salt, the structure may show the parent alone. Read-outs that look alike come from different tables or passages of the source.

Legend:
Type in all cases: biochemical
recombinant human VAP-1 = molecular target: T1, recombinant human VAP-1 (Homo sapiens, UniProt Q16853); test: Activity evaluation on recombinant human VAP-1 (Amplex Red/HRP-coupled hydrogen peroxide assay, benzylamine substrate); settings: read-out: Inhibitory Activity (IC50, nM) human VAP-1
T1 construct: purchased R&D systems
T1 sequence (Q16853 1-763): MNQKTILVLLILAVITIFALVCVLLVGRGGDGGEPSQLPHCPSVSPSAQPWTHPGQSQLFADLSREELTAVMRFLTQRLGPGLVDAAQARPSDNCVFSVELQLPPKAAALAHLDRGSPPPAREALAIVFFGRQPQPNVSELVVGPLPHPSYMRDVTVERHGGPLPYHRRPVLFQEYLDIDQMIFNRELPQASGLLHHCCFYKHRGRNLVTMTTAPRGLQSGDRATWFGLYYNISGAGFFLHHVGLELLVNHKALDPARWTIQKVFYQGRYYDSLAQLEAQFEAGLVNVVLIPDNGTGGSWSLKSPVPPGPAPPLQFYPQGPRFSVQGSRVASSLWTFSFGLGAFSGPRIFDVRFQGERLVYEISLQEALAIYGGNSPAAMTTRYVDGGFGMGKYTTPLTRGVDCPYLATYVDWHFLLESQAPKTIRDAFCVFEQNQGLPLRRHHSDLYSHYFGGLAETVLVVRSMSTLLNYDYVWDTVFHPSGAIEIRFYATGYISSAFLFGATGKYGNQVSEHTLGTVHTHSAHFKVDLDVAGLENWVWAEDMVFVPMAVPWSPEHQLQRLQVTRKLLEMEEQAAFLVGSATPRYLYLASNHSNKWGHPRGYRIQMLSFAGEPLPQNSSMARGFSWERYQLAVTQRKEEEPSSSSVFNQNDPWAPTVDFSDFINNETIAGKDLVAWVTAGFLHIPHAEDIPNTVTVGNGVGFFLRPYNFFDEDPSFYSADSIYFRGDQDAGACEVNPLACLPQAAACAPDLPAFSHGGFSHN
How it was run: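 Hydrogen peroxide from benzylamine (1 mM) oxidation by human recombinant VAP-1 detected via HRP-coupled Amplex Red (200 uM) fluorescence, kinetic over 1–2 h. Enzyme and compound preincubated 30 min at 37 °C, pH 7.4 phosphate; 8-point dose response, signal-rate decrease versus DMSO control fitted to four-parameter logistic for IC50.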

[1] = molecular target: T2, recombinant human MAO-A (monoamine oxidase-A) (Homo sapiens, UniProt P21397); test: Activity evaluation on recombinant human MAO-A (Amplex Red/HRP-coupled assay, 0.5 mM tyramine substrate); settings: read-out: Inhibitory Activity (IC50, nM) MAO-A
T2 construct: purchased Sigma-Aldrich
T2 sequence (P21397 1-527): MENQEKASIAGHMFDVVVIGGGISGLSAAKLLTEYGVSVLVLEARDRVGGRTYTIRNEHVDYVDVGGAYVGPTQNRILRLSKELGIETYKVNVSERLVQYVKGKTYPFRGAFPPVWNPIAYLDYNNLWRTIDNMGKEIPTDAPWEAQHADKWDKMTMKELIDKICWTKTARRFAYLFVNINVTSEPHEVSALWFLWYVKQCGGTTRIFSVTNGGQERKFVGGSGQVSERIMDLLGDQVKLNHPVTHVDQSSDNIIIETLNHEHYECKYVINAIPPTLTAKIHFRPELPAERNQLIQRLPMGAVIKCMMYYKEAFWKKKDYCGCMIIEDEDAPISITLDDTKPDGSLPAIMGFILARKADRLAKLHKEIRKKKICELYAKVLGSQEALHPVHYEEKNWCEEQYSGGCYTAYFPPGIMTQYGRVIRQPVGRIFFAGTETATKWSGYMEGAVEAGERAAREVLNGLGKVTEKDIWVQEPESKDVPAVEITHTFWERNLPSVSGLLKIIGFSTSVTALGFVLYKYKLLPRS
How it was run: (§1)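 8-pt 1:3 dilution series, final DMSO <1%; 30 min 37 °C preincubation w/ enzyme, 50 mM Na phosphate pH 7.4; + 200 uM Amplex Red, 1 U/mL HRP, substrate (MAO-A tyramine 0.5 mM; MAO-B benzylamine 1 mM; DAO putrescine 1 mM); fluor. rate 544/590 nm, 1-2 h; 4-param IC50.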

[2] = molecular target: T3, recombinant human MAO-B (monoamine oxidase-B) (Homo sapiens, UniProt P27338); test: Activity evaluation on recombinant human MAO-B (Amplex Red/HRP-coupled assay, 1 mM benzylamine substrate); settings: read-out: Inhibitory Activity (IC50, nM) MAO-B
T3 construct: purchased Sigma-Aldrich
T3 sequence (P27338 1-520): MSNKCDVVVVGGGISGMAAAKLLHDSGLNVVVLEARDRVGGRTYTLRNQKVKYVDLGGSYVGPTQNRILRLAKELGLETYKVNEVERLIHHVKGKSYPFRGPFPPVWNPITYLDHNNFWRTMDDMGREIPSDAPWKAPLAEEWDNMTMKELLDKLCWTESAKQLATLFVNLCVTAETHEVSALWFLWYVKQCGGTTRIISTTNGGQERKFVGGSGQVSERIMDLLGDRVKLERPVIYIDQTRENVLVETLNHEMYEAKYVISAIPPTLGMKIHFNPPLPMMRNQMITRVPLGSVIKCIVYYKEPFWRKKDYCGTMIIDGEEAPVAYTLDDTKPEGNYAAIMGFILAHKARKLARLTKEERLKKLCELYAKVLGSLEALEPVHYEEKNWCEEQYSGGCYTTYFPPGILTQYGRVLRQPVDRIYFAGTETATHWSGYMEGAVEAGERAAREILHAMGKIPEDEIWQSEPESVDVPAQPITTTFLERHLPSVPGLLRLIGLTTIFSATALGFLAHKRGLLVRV
How it was run: as §1

[3] = molecular target: T4, recombinant human DAO (diamine oxidase) (Homo sapiens, UniProt P19801); test: Activity evaluation on recombinant human DAO (Amplex Red/HRP-coupled assay, 1 mM putrescine substrate); settings: read-out: Inhibitory Activity (IC50, nM) DAO
T4 construct: purchased R&D systems
T4 sequence (P19801 20-751): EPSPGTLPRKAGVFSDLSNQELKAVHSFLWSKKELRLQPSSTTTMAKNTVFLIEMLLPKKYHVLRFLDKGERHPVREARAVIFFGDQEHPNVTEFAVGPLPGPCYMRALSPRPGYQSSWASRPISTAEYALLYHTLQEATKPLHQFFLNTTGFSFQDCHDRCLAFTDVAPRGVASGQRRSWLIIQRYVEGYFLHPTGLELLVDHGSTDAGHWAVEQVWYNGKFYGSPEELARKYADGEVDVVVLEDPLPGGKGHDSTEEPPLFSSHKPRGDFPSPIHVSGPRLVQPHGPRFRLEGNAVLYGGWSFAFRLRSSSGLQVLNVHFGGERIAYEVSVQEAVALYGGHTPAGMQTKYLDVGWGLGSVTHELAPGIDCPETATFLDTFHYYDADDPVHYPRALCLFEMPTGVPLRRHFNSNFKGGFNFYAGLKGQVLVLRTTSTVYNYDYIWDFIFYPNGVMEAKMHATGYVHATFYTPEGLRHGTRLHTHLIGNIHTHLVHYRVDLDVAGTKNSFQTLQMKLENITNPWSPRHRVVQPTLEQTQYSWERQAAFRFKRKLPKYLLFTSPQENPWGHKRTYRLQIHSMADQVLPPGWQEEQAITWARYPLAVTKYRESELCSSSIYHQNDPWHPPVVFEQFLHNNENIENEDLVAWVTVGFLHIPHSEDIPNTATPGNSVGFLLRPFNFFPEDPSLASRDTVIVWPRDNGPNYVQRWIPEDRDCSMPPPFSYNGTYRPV
How it was run: as §1

[4] = recombinant human VAP-1, benzylamine substrate
[5] = recombinant human VAP-1, 30 min preincubation at 37° C., 1 mM benzylamine

CCn1cc(-c2ccc(Cn3cnn(CC(CN)=C(F)F)c3=O)cc2)cn1 [Example 264, 2-[2-(aminomethyl)-3,3-difluoro-allyl]-4-[[4-(1-ethylpyrazol-4-yl)phenyl]methyl]-1,2,4-triazol-3-one Trifluoroacetate]
IC50 (recombinant human VAP-1; [4]): 1.3 nM
IC50 ([1]; 0.5 mM tyramine substrate): > 100000 nM
IC50 ([2]; 1 mM benzylamine substrate): > 100000 nM
IC50 ([3]; 1 mM putrescine substrate): > 100000 nM

NCC(Cn1ncn(-c2ccnc(-c3ccc4c(c3)OCO4)c2)c1=O)=C(F)F [Example 64, 2-[2-(aminomethyl)-3,3-difluoro-allyl]-4-[2-(1,3-benzodioxol-5-yl)-4-pyridyl]-1,2,4-triazol-3-one Trifluoroacetate]
IC50 (recombinant human VAP-1; [5]): 0.4 nM
IC50 ([1]; 0.5 mM tyramine): > 100000 nM
IC50 ([2]; 1 mM benzylamine): 480 nM
IC50 ([3]; 1 mM putrescine): 270 nM

Cc1cc(C#Cc2cnc3c(c2)OCC(=O)N3)cnc1-n1cnn(CC(CN)=C(F)F)c1=O [Example 248, 7-[2-[6-[1-[2-(aminomethyl)-3,3-difluoro-allyl]-5-oxo-1,2,4-triazol-4-yl]-5-methyl-3-pyridyl]ethynyl]-4H-pyrido[3,2-b][1,4]oxazin-3-one trifluoroacetate]
IC50 (recombinant human VAP-1; [4]): 2.7 nM
IC50 ([1]; 0.5 mM tyramine substrate): > 100000 nM
IC50 ([2]; 1 mM benzylamine substrate): 14000 nM
IC50 ([3]; 1 mM putrescine substrate): > 100000 nM

CS(=O)(=O)c1ccc(-c2ccc3sc(Cn4cnn(CC(CN)=C(F)F)c4=O)cc3c2)cc1 [Example 205, 2-[2-(aminomethyl)-3,3-difluoro-allyl]-4-[[5-(4-methylsulfonylphenyl)benzothiophen-2-yl]methyl]-1,2,4-triazol-3-one Trifluoroacetate]
IC50 (recombinant human VAP-1; [4]): 0.8 nM
IC50 ([1]; 0.5 mM tyramine substrate): > 100000 nM
IC50 ([2]; 1 mM benzylamine substrate): > 100000 nM
IC50 ([3]; 1 mM putrescine substrate): 7670 nM

CN1CC=C(c2ccc(Cn3cnn(CC(CN)=C(F)F)c3=O)s2)CC1 [Example 124, 2-[2-(aminomethyl)-3,3-difluoro-allyl]-4-[[5-(1-methyl-3,6-dihydro-2H-pyridin-4-yl)-2-thienyl]methyl]-1,2,4-triazol-3-one Trifluoroacetate]
IC50 (recombinant human VAP-1; [5]): 11 nM
IC50 ([1]; 0.5 mM tyramine): > 100000 nM
IC50 ([2]; 1 mM benzylamine): > 100000 nM
IC50 ([3]; 1 mM putrescine): > 100000 nM

NCC(Cn1ncn(Cc2ccc(-c3ccc4c(c3)CCC(=O)N4)s2)c1=O)=C(F)F [Example 133, 6-[5-[[1-[2-(aminomethyl)-3,3-difluoro-allyl]-5-oxo-1,2,4-triazol-4-yl]methyl]-2-thienyl]-3,4-dihydro-1H-quinolin-2-one Trifluoroacetate]
IC50 (recombinant human VAP-1; [5]): 0.2 nM
IC50 ([1]; 0.5 mM tyramine): > 100000 nM
IC50 ([2]; 1 mM benzylamine): > 100000 nM
IC50 ([3]; 1 mM putrescine): > 10000 nM

CC(C)n1cc(-c2ccc(Cn3cnn(CC(CN)=C(F)F)c3=O)s2)ccc1=O [Example 123, 5-[5-[[1-[2-(aminomethyl)-3,3-difluoro-allyl]-5-oxo-1,2,4-triazol-4-yl]methyl]-2-thienyl]-1-isopropyl-pyridin-2-one Trifluoroacetate]
IC50 (recombinant human VAP-1; [5]): 0.9 nM
IC50 ([1]; 0.5 mM tyramine): > 100000 nM
IC50 ([2]; 1 mM benzylamine): 56000 nM
IC50 ([3]; 1 mM putrescine): 59000 nM

NCC(Cn1ncn(Cc2cc(-c3ccc(N4CCNCC4)cc3)cs2)c1=O)=C(F)F [Example 147, 2-[2-(aminomethyl)-3,3-difluoro-allyl]-4-[[4-(4-piperazin-1-ylphenyl)-2-thienyl]methyl]-1,2,4-triazol-3-one Ditrifluoroacetate]
IC50 (recombinant human VAP-1; [5]): 11 nM
IC50 ([1]; 0.5 mM tyramine): > 100000 nM
IC50 ([2]; 1 mM benzylamine): > 100000 nM
IC50 ([3]; 1 mM putrescine): 2600 nM

CN1C(=O)CCc2cc(-c3ccc(CCn4cnn(CC(CN)=C(F)F)c4=O)s3)ccc21 [Example 179, 6-[5-[2-[1-[2-(aminomethyl)-3,3-difluoro-allyl]-5-oxo-1,2,4-triazol-4-yl]ethyl]-2-thienyl]-1-methyl-3,4-dihydroquinolin-2-one Trifluoroacetate]
IC50 (recombinant human VAP-1; [5]): 0.3 nM
IC50 ([1]; 0.5 mM tyramine): > 100000 nM
IC50 ([2]; 1 mM benzylamine): > 100000 nM
IC50 ([3]; 1 mM putrescine): 290 nM

Cc1cc(-c2ccc(N3CCOCC3)cc2)cnc1-n1cnn(CC(CN)=C(F)F)c1=O [Example 237, 2-[2-(aminomethyl)-3,3-difluoro-allyl]-4-[3-methyl-5-(4-morpholinophenyl)-2-pyridyl]-1,2,4-triazol-3-one Trifluoroacetate]
IC50 (recombinant human VAP-1; [4]): 0.42 nM
IC50 ([1]; 0.5 mM tyramine substrate): > 100000 nM
IC50 ([2]; 1 mM benzylamine substrate): 84000 nM
IC50 ([3]; 1 mM putrescine substrate): 6100 nM
